Calls of active or inactive are those of the source. No cut-off for these calls is given here.
Columns and labels:
[1] = molecular target: T1, MAP kinase-activated protein kinase 2 (Homo sapiens, UniProt P49137); assay: Inhibition of MK2 in LPS-stimulated human THP1 cells assessed as inhibition of Hsp27 phosphorylation pretreated 60 mins before LPS challenge measured after 10 mins; format: cell-based, THP-1
[2] = molecular target: Mitogen-activated protein kinase 1 (Homo sapiens) (UniProt P28482); assay: Inhibition of ERK2 at 1 uM
Sequence of Mitogen-activated protein kinase 1 (Homo sapiens) (P28482 whole entry, looked up): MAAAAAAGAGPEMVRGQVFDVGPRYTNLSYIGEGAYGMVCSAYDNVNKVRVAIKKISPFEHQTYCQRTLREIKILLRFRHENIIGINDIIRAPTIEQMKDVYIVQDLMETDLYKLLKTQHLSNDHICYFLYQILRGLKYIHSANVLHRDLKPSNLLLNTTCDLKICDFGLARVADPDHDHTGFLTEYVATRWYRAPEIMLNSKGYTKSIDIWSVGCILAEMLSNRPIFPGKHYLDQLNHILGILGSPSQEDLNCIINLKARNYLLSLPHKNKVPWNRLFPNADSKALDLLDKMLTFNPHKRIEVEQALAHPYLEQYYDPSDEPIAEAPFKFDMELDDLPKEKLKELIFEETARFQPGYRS

THP-1 = assay: Antiinflammatory activity in human THP1 cells assessed as inhibition of LPS-induced TNFalpha production pretreated 30 mins before LPS challenge measured after 4 hrs; format: functional, cell-based
PBMC = assay: Antiinflammatory activity in human PBMC cells assessed as inhibition of LPS-induced TNFalpha production pretreated 30 mins before LPS challenge measured after 4 hrs by ELISA; format: functional, cell-based
[3] = molecular target: Serine/threonine-protein kinase Chk2 (Homo sapiens) (UniProt O96017); assay: Inhibition of CHK2 at 1 uM
Sequence of Serine/threonine-protein kinase Chk2 (Homo sapiens) (O96017 whole entry): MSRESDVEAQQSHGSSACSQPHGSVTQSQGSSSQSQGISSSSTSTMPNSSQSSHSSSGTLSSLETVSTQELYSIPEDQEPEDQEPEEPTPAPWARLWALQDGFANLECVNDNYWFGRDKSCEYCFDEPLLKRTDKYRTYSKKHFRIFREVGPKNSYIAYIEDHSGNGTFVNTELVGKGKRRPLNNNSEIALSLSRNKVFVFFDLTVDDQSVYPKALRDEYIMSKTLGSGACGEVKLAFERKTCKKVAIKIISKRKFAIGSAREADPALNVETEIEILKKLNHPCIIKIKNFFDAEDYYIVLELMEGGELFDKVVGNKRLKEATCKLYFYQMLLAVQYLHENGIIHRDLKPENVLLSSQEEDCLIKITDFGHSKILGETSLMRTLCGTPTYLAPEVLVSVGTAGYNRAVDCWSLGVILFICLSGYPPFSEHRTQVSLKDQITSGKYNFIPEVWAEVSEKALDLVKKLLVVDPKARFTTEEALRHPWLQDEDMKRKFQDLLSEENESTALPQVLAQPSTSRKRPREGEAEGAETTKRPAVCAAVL

[4] = molecular target: T1, MAP kinase-activated protein kinase 2; assay: Inhibition of MK2 pretreated for 30 mins before fluorescein labeled substrate peptide addition measured after 2 hrs by IMAP assay
[5] = molecular target: Serine/threonine-protein kinase pim-1 (Homo sapiens) (UniProt P11309); assay: Inhibition of PIM1 at 1 uM
Sequence of Serine/threonine-protein kinase pim-1 (Homo sapiens) (P11309 whole entry, looked up): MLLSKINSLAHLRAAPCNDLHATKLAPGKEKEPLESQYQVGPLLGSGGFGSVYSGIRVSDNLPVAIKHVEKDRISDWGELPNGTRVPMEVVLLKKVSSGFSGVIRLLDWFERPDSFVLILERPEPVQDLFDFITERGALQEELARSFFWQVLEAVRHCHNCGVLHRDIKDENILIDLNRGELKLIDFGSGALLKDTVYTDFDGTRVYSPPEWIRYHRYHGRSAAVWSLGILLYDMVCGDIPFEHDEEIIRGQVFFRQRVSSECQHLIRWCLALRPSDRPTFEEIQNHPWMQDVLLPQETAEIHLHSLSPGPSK

[6] = molecular target: Mitogen-activated protein kinase 3 (Homo sapiens) (UniProt P27361); assay: Inhibition of ERK1 at 1 uM
Sequence of Mitogen-activated protein kinase 3 (Homo sapiens) (P27361 whole entry): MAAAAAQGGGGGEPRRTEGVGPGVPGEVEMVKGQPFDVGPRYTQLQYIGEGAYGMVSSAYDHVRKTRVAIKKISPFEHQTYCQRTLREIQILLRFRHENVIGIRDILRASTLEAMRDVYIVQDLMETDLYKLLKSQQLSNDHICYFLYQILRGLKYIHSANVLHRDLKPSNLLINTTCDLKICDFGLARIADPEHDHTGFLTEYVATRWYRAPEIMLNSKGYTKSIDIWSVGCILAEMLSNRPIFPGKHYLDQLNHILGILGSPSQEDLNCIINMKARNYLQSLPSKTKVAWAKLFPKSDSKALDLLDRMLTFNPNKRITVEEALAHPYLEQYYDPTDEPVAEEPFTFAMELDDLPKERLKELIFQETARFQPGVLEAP

[7] = Inhibition of p38
[8] = molecular target: Serine/threonine-protein kinase pim-3 (Homo sapiens) (UniProt Q86V86); assay: Inhibition of PIM3 at 1 uM
[9] = molecular target: T2, Serine/threonine-protein kinase 17A (Homo sapiens) (UniProt Q9UEE5); assay: Inhibition of DRAK1 at 1 uM
T2 sequence (whole entry): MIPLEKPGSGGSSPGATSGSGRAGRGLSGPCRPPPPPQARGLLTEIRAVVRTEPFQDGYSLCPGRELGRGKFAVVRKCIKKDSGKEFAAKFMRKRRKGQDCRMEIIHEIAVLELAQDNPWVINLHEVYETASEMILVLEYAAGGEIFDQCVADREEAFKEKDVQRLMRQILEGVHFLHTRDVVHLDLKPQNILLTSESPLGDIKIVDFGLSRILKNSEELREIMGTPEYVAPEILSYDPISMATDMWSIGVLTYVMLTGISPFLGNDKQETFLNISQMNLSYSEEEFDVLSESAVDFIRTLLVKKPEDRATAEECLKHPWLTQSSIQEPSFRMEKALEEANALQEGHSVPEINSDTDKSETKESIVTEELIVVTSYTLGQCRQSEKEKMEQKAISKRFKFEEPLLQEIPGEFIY

T1 sequence (P49137 whole entry): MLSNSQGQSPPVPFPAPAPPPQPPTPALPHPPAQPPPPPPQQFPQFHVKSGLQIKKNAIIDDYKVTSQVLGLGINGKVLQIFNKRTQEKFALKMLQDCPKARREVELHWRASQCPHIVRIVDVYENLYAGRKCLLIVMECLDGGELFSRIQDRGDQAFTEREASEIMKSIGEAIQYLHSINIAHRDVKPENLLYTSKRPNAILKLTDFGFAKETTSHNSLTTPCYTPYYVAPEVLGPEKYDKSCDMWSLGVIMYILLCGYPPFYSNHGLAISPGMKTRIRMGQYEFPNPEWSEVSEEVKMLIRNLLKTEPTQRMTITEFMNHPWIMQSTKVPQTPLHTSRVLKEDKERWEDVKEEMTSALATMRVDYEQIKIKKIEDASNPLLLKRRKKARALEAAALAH

| SMILES | EC50 [1] [nM] | inhibition [2] [%] | EC50 (THP-1) [nM] | inhibition [3] [%] | EC50 [4] [nM] | inhibition [5] [%] | inhibition [6] [%] | inhibition [7] | inhibition [8] [%] | inhibition [9] [%] | EC50 (PBMC) [nM] |
| --- | --- | --- | --- | --- | --- | --- | --- | --- | --- | --- | --- |
| O=C1NC[C@]2(CCCNC2)c2[nH]c(-c3ccnc(-c4ccc5c(c4)OCO5)n3)cc21 | 7700 | > 80 | 8300 | > 80 | 91 | > 80 | > 80 | inactive | > 80 | > 80 | 3000 |
| O=C1NCC2(CCNCC2)c2[nH]c(-c3ccnc(-c4ccc5c(c4)OCCCO5)n3)cc21 |  | > 80 | 4900 | > 80 | 10 | > 80 | > 80 | inactive | > 80 | > 80 |  |
| CC(C)(C)c1ccc(-c2nccc(-c3cc4c([nH]3)C3(CCNCC3)CNC4=O)n2)cc1 |  | > 80 | 5900 | > 80 | 6.2 | > 80 | > 80 | inactive | > 80 | > 80 |  |
| O=C1NC[C@]2(CCCNC2)c2[nH]c(-c3ccnc(-c4cccnc4)n3)cc21 | 5800 | > 80 | 8700 | > 80 | 288 | > 80 | > 80 | inactive | > 80 | > 80 | 4300 |
| O=C1NCC2(CCNCC2)c2[nH]c(-c3ccnc(-c4cc(Cl)cc(Cl)c4)n3)cc21 |  | > 80 | 6300 | > 80 | 4.5 | > 80 | > 80 | inactive | > 80 | > 80 |  |
| Nc1ccc(-c2nccc(-c3cc4c([nH]3)C3(CCNCC3)CNC4=O)n2)cn1 |  | > 80 | > 10000 | > 80 | 15 | > 80 | > 80 | inactive | > 80 | > 80 |  |
| O=C1NCC2(CCNCC2)c2[nH]c(-c3ccnc(-c4ccc(C(F)(F)F)cc4)n3)cc21 |  | > 80 | 6300 | > 80 | 6.9 | > 80 | > 80 | inactive | > 80 | > 80 |  |
| Nc1ncc(-c2nccc(-c3cc4c([nH]3)C3(CCNCC3)CNC4=O)n2)cn1 |  | > 80 | > 10000 | > 80 | 5 | > 80 | > 80 | inactive | > 80 | > 80 |  |
| O=C1NCC2(CCNCC2)c2[nH]c(-c3ccnc(-c4cccnc4)n3)cc21 |  | > 80 | > 10000 | > 80 | 1.1 | > 80 | > 80 | inactive | > 80 | > 80 |  |
| CC(=O)c1ccc(-c2nccc(-c3cc4c([nH]3)C3(CCNCC3)CNC4=O)n2)cc1 |  | > 80 | 5000 | > 80 | 9.8 | > 80 | > 80 | inactive | > 80 | > 80 |  |
| CCC(=O)Nc1ccc(-c2nccc(-c3cc4c([nH]3)C3(CCNCC3)CNC4=O)n2)cn1 |  | > 80 | > 10000 | > 80 | 6.2 | > 80 | > 80 | inactive | > 80 | > 80 |  |
| CC(=O)c1cccc(-c2nccc(-c3cc4c([nH]3)C3(CCNCC3)CNC4=O)n2)c1 |  | > 80 | 6200 | > 80 | 11 | > 80 | > 80 | inactive | > 80 | > 80 |  |
| O=C1NCCc2[nH]c(-c3ccnc(-c4ccccc4F)c3)cc21 |  |  | 9100 | > 80 |  | > 80 |  | inactive | > 80 | > 80 |  |
| COc1cncc(-c2nccc(-c3cc4c([nH]3)C3(CCNCC3)CNC4=O)n2)c1 |  | > 80 | > 10000 | > 80 | 6.9 | > 80 | > 80 | inactive | > 80 | > 80 |  |
| O=C1NCC2(CCOCC2)c2[nH]c(-c3ccnc(-c4ccc5c(c4)OCO5)n3)cc21 |  | > 80 | > 10000 | > 80 | 724 | > 80 | > 80 | inactive | > 80 | > 80 |  |
| CC(C)c1cccc(-c2nccc(-c3cc4c([nH]3)C3(CCNCC3)CNC4=O)n2)c1 |  | > 80 | > 10000 | > 80 | 112 | > 80 | > 80 | inactive | > 80 | > 80 |  |

More lines, in order of falling EC50 (THP-1), values ahead:

| EC50 [1] [nM] | inhibition [2] [%] | EC50 (THP-1) [nM] | inhibition [3] [%] | EC50 [4] [nM] | inhibition [5] [%] | inhibition [6] [%] | inhibition [7] | inhibition [8] [%] | inhibition [9] [%] | SMILES | EC50 (PBMC) [nM] |
| --- | --- | --- | --- | --- | --- | --- | --- | --- | --- | --- | --- |
|  | > 80 | 4800 | > 80 |  | > 80 | > 80 | inactive | > 80 | > 80 | O=C1NCC2(CCNCC2)c2[nH]c(-c3ccnc(-c4cnc5ccccc5c4)n3)cc21 |  |
|  | > 80 | 4200 | > 80 | 29 | > 80 | > 80 | inactive | > 80 | > 80 | O=C1NCC2(CCNCC2)c2[nH]c(-c3ccnc(-c4ccccc4F)n3)cc21 |  |
|  | > 80 | 4200 | > 80 | 15 | > 80 | > 80 | inactive | > 80 | > 80 | O=C1NCC2(CCNCC2)c2[nH]c(-c3ccnc(-c4cccc(C(F)(F)F)c4)n3)cc21 |  |
|  | > 80 | 3600 | > 80 | 5.1 | > 80 | > 80 | inactive | > 80 | > 80 | O=C1NCC2(CCNCC2)c2[nH]c(-c3ccnc(-c4ccc5ccccc5c4)n3)cc21 |  |
| 2100 | > 80 | 3000 | > 80 | 18 | > 80 | > 80 | inactive | > 80 | > 80 | O=C1NCC2(CCCNC2)c2[nH]c(-c3ccnc(-c4cccnc4)n3)cc21 (racemic) | 3300 |
|  | > 80 | 2600 | > 80 | 4.9 | > 80 | > 80 | inactive | > 80 | > 80 | O=C1NCC2(CCNCC2)c2[nH]c(-c3ccnc(-c4cnc(NC5CCCC5)nc4)n3)cc21 |  |
| 2300 | > 80 | 2200 | > 80 | 126 | > 80 | > 80 | inactive | > 80 | > 80 | COc1cncc(-c2nccc(-c3cc4c([nH]3)[C@@]3(CCCNC3)CNC4=O)n2)c1 | > 10000 |
|  | > 80 | 1400 | > 80 | 8.3 | > 80 | > 80 | inactive | > 80 | > 80 | O=C1NCC2(CCNCC2)c2[nH]c(-c3ccnc(-c4cccc(F)c4)n3)cc21 |  |
| 400 | > 80 | 980 | > 80 | 6.9 | > 80 | > 80 | inactive | > 80 | > 80 | COCCCOc1ccc(-c2nccc(-c3cc4c([nH]3)[C@]3(CCCNC3)CNC4=O)n2)cn1 | 430 |
| 500 | > 80 | 850 | > 80 | 7.4 | > 80 | > 80 | inactive | > 80 | > 80 | O=C1NC[C@@]2(CCCNC2)c2[nH]c(-c3ccnc(-c4ccc5c(c4)OCO5)n3)cc21 | 450 |
